pIC50: −log10 of the molar value. Where two headings read alike, the source gives them in different places.
Tests used:
SUV39H2 [1] = molecular target: T1, SUV39H2 (Homo sapiens (Human), UniProt Q9H5I1); assay: biochemical
HCT-116 = assay: Cell-based assay, anti-proliferative activity (Cell Counting Kit-8, 72 hours); conditions: Homo sapiens; HCT-116 cells, Cell Counting Kit-8, 72 hours; read-out: IC50 (μM) HCT-116
Procedure, shortened: (§1)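 Growth inhibition is read by Cell Counting Kit-8 after three days of compound treatment. Test concentrations span 0, 1.5625, 3.125, 6.25, 12.5, 25, 50 and 100 micro-M, and IC50 serves as the anti-proliferative measure.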

CCD-18Co = assay: as above; conditions: Homo sapiens; CCD-18Co cells, Cell Counting Kit-8, 72 hours; read-out: IC50 (μM) CCD-18Co
Procedure, shortened: as §1

HFL1 = assay: as above; conditions: Homo sapiens; HFL1 cells, Cell Counting Kit-8, 72 hours; read-out: IC50 (μM) HFL1
Procedure, shortened: as §1

PC14 = assay: as above; conditions: Homo sapiens, PC-14; PC14 cells, Cell Counting Kit-8, 72 hours; read-out: IC50 (μM) PC14
Procedure, shortened: as §1

A549 = assay: as above; conditions: Homo sapiens; A549 cells, Cell Counting Kit-8, 72 hours; read-out: IC50 (μM) A549
Procedure, shortened: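 IC50 values come from growth read-outs taken after the cells' exposure to each candidate inhibitor. Cells had been plated in 96-well microtiter plates beforehand.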

SUV39H2 [2] = molecular target: T1, SUV39H2; conditions: read-out: IC50 (μM) Suv 39H2 assay; enzyme assay

T1 sequence (Q9H5I1 whole entry): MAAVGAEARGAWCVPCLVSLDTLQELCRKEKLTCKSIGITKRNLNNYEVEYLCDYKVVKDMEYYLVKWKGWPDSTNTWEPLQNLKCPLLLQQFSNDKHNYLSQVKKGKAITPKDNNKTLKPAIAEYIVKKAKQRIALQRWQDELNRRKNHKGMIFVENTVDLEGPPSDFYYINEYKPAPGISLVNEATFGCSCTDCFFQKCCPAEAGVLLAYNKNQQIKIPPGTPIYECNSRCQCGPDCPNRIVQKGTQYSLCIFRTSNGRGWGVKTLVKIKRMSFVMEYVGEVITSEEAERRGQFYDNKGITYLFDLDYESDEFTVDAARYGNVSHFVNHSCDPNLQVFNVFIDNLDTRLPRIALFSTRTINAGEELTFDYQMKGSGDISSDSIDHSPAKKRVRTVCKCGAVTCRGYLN

Row | SMILES | pIC50 (SUV39H2 [1]) | IC50 (HCT-116) [µM] | IC50 (CCD-18Co) [µM] | IC50 (HFL1) [µM] | IC50 (PC14) [µM] | IC50 (A549) [µM] | IC50 (SUV39H2 [2]) [µM]
1 | CCCS(=O)(=O)NC1CCN(c2ccn3cc(-c4cc(Cl)c(OC)cc4OC)nc3n2)CC1 [Example 193, N-(1-(2-(5-chloro-2,4-dimethoxyphenyl)imidazo[1,2-a]pyrimidin-7-yl)-piperidin-4-yl)propane-1-sulfonamide] | 7.49 | 10 | 10 | 10 | 6.7 | 10 | –
2 | COc1cc(OC)c(-c2cn3ccc(N4CCN(C(C)C)CC4)cc3n2)cc1Cl [Example 100, 2-(5-chloro-2,4-dimethoxyphenyl)-7-(4-isopropylpiperazin-1-yl)imidazo-[1,2-a]pyridine] | 7.81 | 3.2 | 5.8 | 3.2 | – | 5.6 | 0.0136

— patent publication US10508109B2 (priority 2015, dated 2019)
